The values below come from US20120135094A1, “OREGANO AND MINT ANTI-INFLAMMATORY COMPOSITIONS AND METHODS” (RUTGERS, THE STATE UNIVERSITY OF NEW JERSEY, priority 2009, published 2012).

What all share (type): cell-based, murine
Experiment [1] has as its system COX-2 protein in RAW 264.7 cells. The experiment in a line: Western Blotting of LPS-induced COX-2 protein level. Particulars: test compounds 10 and 20 μg/mL, 24 h. The method, then:
(§1) FIG. 5 illustrates effects of rosmarinic acid (RosA), oleanolic acid (OA), ursolic acid (UA) and indomethacin on LPS-induced iNOS and COX-2 protein levels in RAW 264.7 cells. The cells were treated with test compounds (10 and 20 μg/mL) for 24 h. Equal amounts of total proteins (50 μg) were subjected to 10% SDS-PAGE. The expression of iNOS, COX-2 and β-actin protein was detected by Western Blot using specific antibodies. Quantification of iNOS and COX-2 protein expression was performed by densitometric analysis of the immunoblot. The values below the figure represent the relative intensity in protein expression of the bands normalized to β-actin.
(§2) RAW 264.7 cells, derived from murine macrophages, were procured from the American Type Culture Collection (Rockville, Md.). The cells were cultured in RPMI-1640 (without phenol red) supplemented with 10% endotoxin-free, heat-inactivated fetal calf serum (GIBCO, Grand Island, N.Y.), 100 units/mL penicillin, and […] streptomycin. When the RAW 264.7 cells reached a density of 2-3×10^6 cells/mL, they were activated by incubation in the medium containing E. coli LPS (lipopolysaccharide, 100 ng/mL). Various concentrations of test compounds dissolved in DMSO (dimethylsulfoxide) were combined together with LPS. The cells were treated with 0.05% DMSO as vehicle control.
(§3) The total proteins, isolated from cells after treatment with test compounds for 24 h, were extracted via addition of 200 μL of gold lysis buffer (50 mM Tris-HCl, pH 7.4; 1 mM NaF; 150 mM NaCl; 1 mM EGTA; 1 mM phenylmethanesulfonyl fluoride; 1% NP-40; and 10 μg/mL leupeptin) to the cell pellets on ice for 30 min, followed by centrifugation for 30 min at 4° C. The cytosolic fraction (supernatant) proteins were measured by Bio-Rad Protein Assay (Bio-Rad Laboratories, Munich, Germany). The samples (50 μg of proteins) were mixed with 5-fold sample buffer containing 0.3 M Tris-HCl (pH 6.8), 25% 2-mercaptoethanol, 12% sodium dodecyl sulfate (SDS), 25 mM EDTA, 20% glycerol, and 0.1% bromophenol blue. […]

Experiment [2] concerns iNOS protein in RAW 264.7 cells. The experiment can be described thus: Western Blotting of LPS-induced iNOS protein level. Conditions: test compounds 10 and 20 μg/mL, 24 h. How it is done: as §1, §2, §3
In experiment [3] the test system is LPS-induced nitrite production in RAW 264.7 macrophages. The experiment in a line: LPS-induced nitrite production assay (Griess reaction). Particulars: concentration range of 10-100 μg/mL, dose-dependently; LPS 100 ng/mL, 24 h. How it is done:
FIG. 4 illustrates anti-inflammatory effect of rosmarinic acid (RosA), ursolic acid (UA) and oleanolic acid (OA) on LPS-induced nitrite production in RAW 264.7 macrophages. The cells were treated with 100 ng/mL of LPS only or with different concentrations of test compounds for 24 h. At the end of incubation time, 100 μL of the culture medium was collected for nitrite assay. The values are expressed as means±standard error of triplicate tests.
RAW 264.7 cells, derived from murine macrophages, were procured from the American Type Culture Collection (Rockville, Md.). The cells were cultured in RPMI-1640 (without phenol red) supplemented with 10% endotoxin-free, heat-inactivated fetal calf serum (GIBCO, Grand Island, N.Y.), 100 units/mL penicillin, and […] streptomycin. When the RAW 264.7 cells reached a density of 2-3×10^6 cells/mL, they were activated by incubation in the medium containing E. coli LPS (lipopolysaccharide, 100 ng/mL). […]
The RAW 264.7 cells were treated with various compounds and LPS or LPS only. The supernatants were harvested and the amount of nitrite, an indicator of NO synthesis, was measured using the Griess reaction. […] After incubation at room temperature for 10 min, absorbance at 570 nm was measured with the ELISA reader (Thermo Labsystems, Multiskan Ascent, Finland).

Consider `C[C@H]1[C@H](C)CC[C@]2(C(=O)O)CC[C@]3(C)C(=CC[C@@H]4[C@@]5(C)CC[C@H](O)C(C)(C)[C@@H]5CC[C@]43C)[C@H]12` [ursolic acid], for which the COX-2 protein expression entry in experiment [1] is “suppressed COX-2 protein expression”. In addition, in experiment [2], the iNOS protein expression result is recorded as “reduced expression of iNOS protein”.
Take `CC1(C)CC[C@]2(C(=O)O)CC[C@]3(C)C(=CC[C@@H]4[C@@]5(C)CC[C@H](O)C(C)(C)[C@@H]5CC[C@]43C)[C@@H]2C1` [oleanolic acid]: in experiment [1], the COX-2 protein expression result is given as “suppressed COX-2 protein expression”. In addition, in experiment [2], the iNOS protein expression result is “reduced expression of iNOS protein”.
`O=C(/C=C/c1ccc(O)c(O)c1)O[C@H](Cc1ccc(O)c(O)c1)C(=O)O` [rosmarinic acid]: in experiment [3], the “suppression of NO generation” value is recorded as 19-100%. Also, in experiment [1], the COX-2 protein expression result is reported as “suppressed COX-2 protein expression”. For the same compound, in experiment [2], the iNOS protein expression result is listed as “reduced expression of iNOS protein”.
